In PMC6585649 (Clinical Pharmacology in Drug Development, 2018):
Read-outs that look alike come from different tables or passages of the source.

How the values were obtained:
[1] = 6 and 12 mg twice daily, IR formulation, background methotrexate; cited from earlier work
[2] = type: in vivo; conditions: human, not told, po
[3] = cited from earlier work
[4] = type: in vivo, human (healthy subjects); conditions: for AUC(0-t) / AUC(0-inf) / Cmax / half-life: human, plasma, oral; for AUC(0-t): AUCt
[5] = cited from earlier work; remark: listed apart in the source
cytochrome P450 (CYP) 3A = conditions: in vitro; cited from earlier work
Multiple-dose = type: in vivo, human (healthy subjects); conditions: for AUC(0-t) / Cmax / half-life at 7 days: human, plasma, oral; for AUC(0-t): AUC0–24, steady state (day 7); for Cmax: steady state (day 7); for half-life at 7 days: t1/2, steady state; for Cmin: steady state (day 7, 24-hour period)
[6] = cited from earlier work; remark: listed apart in the source
CYP2D6 = conditions: in vitro; cited from earlier work
[7] = 12 mg, single 12 mg IR, fasting, n = 11, mean ± SD
[8] = 15 mg, single 15 mg ER, fasting, n = 11, mean ± SD
[9] = 24 mg, single 24 mg IR, fasting, n = 12, mean ± SD
[10] = 30 mg, single 30 mg ER after high-fat breakfast, n = 12, mean ± SD
[11] = 30 mg, single 30 mg ER, fasting, n = 12, mean ± SD
[12] = 6 mg, 6 mg twice-daily IR, fasting, n = 11, mean ± SD
[13] = 12 mg, 12 mg twice-daily IR, fasting, n = 11, mean ± SD
[14] = 15 mg, 15 mg once-daily ER, fasting, n = 12, mean ± SD
[15] = 15 mg, 15 mg once-daily ER, nonfasting, n = 12, mean ± SD
[16] = 30 mg, 30 mg once-daily ER, fasting, n = 11, mean ± SD
[17] = 30 mg, 30 mg once-daily ER, nonfasting, n = 12, mean ± SD

For CC[C@@H]1CN(C(=O)NCC(F)(F)F)C[C@@H]1c1cnc2cnc3[nH]ccc3n12 [Upadacitinib], the “efficacy in subjects with RA” value [1] is listed as “maximal efficacy”, the bioavailability [2] is listed as 70 to 80% and the “effect of CYP2D6 metabolic phenotype on apparent oral clearance” value [3] is listed as “no effect”. The “residual error in upadacitinib concentrations” value [3] was 31%, the “intersubject variability of apparent central volume of distribution” value ([3]; healthy subjects) was 14% and the “intersubject variability of apparent oral clearance” value ([3]; healthy subjects) was 16%. The “higher AUC compared with subjects with normal renal function” value ([3]; mild renal impairment, estimated) was 16%, the “higher AUC compared with subjects with normal renal function” value ([3]; moderate renal impairment, estimated) was 32% and the “apparent oral clearance lower in RA patients compared with healthy subjects” value ([3]; population pharmacokinetic analyses, estimated) was 24%. For the same compound, the “intersubject variability of apparent central volume of distribution” value ([3]; subjects with RA) was 27%, the “intersubject variability of apparent oral clearance” value ([3]; subjects with RA) was 26% and the “increase in AUC and Cmax after a high-fat meal compared with fasting” value ([4]; ER formulation) was about 20%. For the same compound, the AUC(0-t) [4, 7] was 231 ± 34.5 ng·h/mL, the AUC(0-inf) [4, 7] was 234 ± 34.6 ng·h/mL and the Cmax [4, 7] was 64.6 ± 10.3 ng/mL. It also gave a half-life ([4]; 12 mg, t1/2, single 12 mg IR, fasting, n = 11, mean ± SD) of 18.3 ± 13.3 h, an AUC(0-t) [4, 8] of 227 ± 60 ng·h/mL and an AUC(0-inf) [4, 8] of 242 ± 63.6 ng·h/mL. The half-life ([4]; 15 mg, t1/2, single 15 mg ER, fasting, n = 11, mean ± SD) was 21.9 ± 23.1 h, the AUC(0-inf) [4, 9] was 524 ± 133 ng·h/mL and the Cmax [4, 9] was 176 ± 65.6 ng/mL. It also gave a half-life ([4]; 24 mg, t1/2, single 24 mg IR, fasting, n = 12, mean ± SD) of 15.3 ± 13.6 h, an AUC(0-t) [4, 10] of 564 ± 145 ng·h/mL and an AUC(0-t) [4, 11] of 477 ± 130 ng·h/mL. The AUC(0-inf) [4, 11] was 491 ± 133 ng·h/mL, the Cmax [4, 10] was 76.8 ± 29.6 ng/mL and the Cmax [4, 11] was 63.7 ± 21.1 ng/mL. The half-life ([4]; 30 mg, t1/2, single 30 mg ER after high-fat breakfast, n = 12, mean ± SD) was 15.9 ± 11 h, the half-life ([4]; 30 mg, t1/2, single 30 mg ER, fasting, n = 12, mean ± SD) was 18.1 ± 14.5 h and the “decrease in upadacitinib AUC with rifampin” value ([5]; CYP inducer rifampin) was 60%. For the same compound, the “decrease of Cmax by food” value ([5]; IR formulation) was “approximately 20%”, the “impact of food on AUC” value ([5]; IR formulation) was “no impact” and the “increase in upadacitinib AUC with ketoconazole” value ([5]; strong CYP3A inhibitor ketoconazole) was 75%. The “substrate of CYP3A” value (cytochrome P450 (CYP) 3A) was “nonsensitive substrate”, the “difference of central values for Cmax and Cmin, ER once daily vs IR twice daily” value (Multiple-dose; 15 and 30 mg once daily vs 6 and 12 mg twice daily, fasting, steady state) was at most 13% and the AUC(0-t) (Multiple-dose; [12]) was 288 ± 63.5 ng·h/mL. For the same compound, the Cmax (Multiple-dose; [12]) was 33.9 ± 8.8 ng/mL, the half-life at 7 days (Multiple-dose; [12]) was 24.5 ± 18.1 h and the AUC(0-t) (Multiple-dose; [13]) was 534 ± 97.8 ng·h/mL. For the same compound, the Cmax (Multiple-dose; [13]) was 73.9 ± 14.2 ng/mL, the half-life at 7 days (Multiple-dose; [13]) was 11.5 ± 9.2 h and the AUC(0-t) (Multiple-dose; [14]) was 279 ± 71.4 ng·h/mL. It also gave an AUC(0-t) (Multiple-dose; [15]) of 317 ± 68.1 ng·h/mL, a Cmax (Multiple-dose; [14]) of 31.9 ± 11.2 ng/mL and a Cmax (Multiple-dose; [15]) of 36 ± 8.8 ng/mL. It also gave a half-life at 7 days (Multiple-dose; [14]) of 16.9 ± 12 h, a half-life at 7 days (Multiple-dose; [15]) of 15.1 ± 10.1 h and an AUC(0-t) (Multiple-dose; [16]) of 525 ± 123 ng·h/mL. For the same compound, the AUC(0-t) (Multiple-dose; [17]) was 582 ± 172 ng·h/mL, the Cmax (Multiple-dose; [16]) was 68.2 ± 20.5 ng/mL and the Cmax (Multiple-dose; [17]) was 79.5 ± 31.8 ng/mL. The half-life at 7 days (Multiple-dose; [16]) was 22.9 ± 21.1 h, the “steady state achieved by day” value (Multiple-dose; once-daily dosing of ER formulation, predose concentrations) was at most 4 days and the Cmin (Multiple-dose; 6 mg twice-daily IR, fasting, n = 11, mean ± SD) was 2.7 ± 0.6. The Cmin (Multiple-dose; 12 mg twice-daily IR, fasting, n = 11, mean ± SD) was 3.8 ± 2.2, the Cmin (Multiple-dose; 15 mg once-daily ER, fasting, n = 12, mean ± SD) was 3.1 ± 1.1 and the Cmin (Multiple-dose; 15 mg once-daily ER, nonfasting, n = 12, mean ± SD) was 2.8 ± 1.2. The Cmin (Multiple-dose; 30 mg once-daily ER, fasting, n = 11, mean ± SD) was 3.8 ± 1.6, the Cmin (Multiple-dose; 30 mg once-daily ER, nonfasting, n = 12, mean ± SD) was 4.6 ± 1.8 and the “dose eliminated unchanged in urine” value ([6]; IR formulation) was “approximately 20%”. For the same compound, the “time to maximum plasma concentration” value ([6]; IR formulation) was at most 2 h, the accumulation in plasma ([6]; twice-daily dosing of the IR formulation) was “no significant accumulation” and the “contribution of CYP2D6 to metabolism” value (CYP2D6) was “minor contribution”.
